The supplement of paper PMC10307832

Columns and labels:
Test in all cases: relative viability (nuclei count vs DMSO), 5 days (fraction); higher = more cells survive
[1] = compound: C=CC(=O)Nc1cc(-n2c(=O)ccc3cnc4ccc(-c5ccc(NS(C)(=O)=O)cc5)cc4c32)ccc1C [BMX-IN-1] + C[C@]1(O)C[C@@H](c2nc(-c3ccc4ccc(-c5ccccc5)nc4c3)c3c(N)nccn32)C1 [Linsitinib] (partner 1 µM)
Outline: (§1)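 Relative viability equals treated-well nuclei counts divided by vehicle-well nuclei counts. Counts came from 4× images of lung cancer cell lines grown in 1536-well plates for 5 days after pin-tool dosing on the day after seeding. Dosing used one drug alone or a fixed anchor-drug dose plus five library-drug doses (not always all listed) in √10 steps, and values are medians of duplicate plates.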

[2] = compound: C=CCc1cccc(/C=N/NC(=O)CN2CCN(Cc3ccccc3)CC2)c1O [PAC-1] + NC(=O)Nc1cc(-c2cccc(F)c2)sc1C(=O)N[C@H]1CCCNC1 [AZD7762] (partner 0.2 µM)
Outline: as §1

[3] = compound: C=CCc1cccc(/C=N/NC(=O)CN2CCN(Cc3ccccc3)CC2)c1O [PAC-1] + CCNC(=O)c1noc(-c2cc(C(C)C)c(O)cc2O)c1-c1ccc(CN2CCOCC2)cc1 [Luminespib] (partner 0.01 µM)
Outline: as §1

[4] = compound: C=CCc1cccc(/C=N/NC(=O)CN2CCN(Cc3ccccc3)CC2)c1O [PAC-1] + Nc1nc2[nH]cc(CCc3ccc(C(=O)N[C@@H](CCC(=O)O)C(=O)O)cc3)c2c(=O)[nH]1 [Pemetrexed] (partner 0.2 µM)
Outline: as §1

[5] = compound: C=CCc1cccc(/C=N/NC(=O)CN2CCN(Cc3ccccc3)CC2)c1O [PAC-1] + COc1cccc2cc(-c3nc([C@H]4CC[C@H](C(=O)O)CC4)n4ncnc(N)c34)[nH]c12 [OSI-027] (partner 0.5 µM)
Outline: as §1

Cell Line	relative viability ([1]; first compound 0.02 µM)	relative viability ([1]; first compound 0.2 µM)	relative viability ([1]; first compound 0.6325 µM)	relative viability ([1]; first compound 2 µM)	relative viability ([2]; first compound 0.02 µM)	relative viability ([2]; first compound 0.06325 µM)	relative viability ([2]; first compound 0.2 µM)	relative viability ([2]; first compound 2 µM)	relative viability ([3]; first compound 0.02 µM)	relative viability ([3]; first compound 0.06325 µM)	relative viability ([3]; first compound 0.2 µM)	relative viability ([3]; first compound 2 µM)	relative viability ([4]; first compound 0.02 µM)	relative viability ([4]; first compound 0.06325 µM)	relative viability ([4]; first compound 0.2 µM)	relative viability ([4]; first compound 2 µM)	relative viability ([5]; first compound 0.02 µM)	relative viability ([5]; first compound 0.06325 µM)	relative viability ([5]; first compound 0.2 µM)	relative viability ([5]; first compound 2 µM)
NCI-H1755	1.04	1.09	1.1	1	0.45	0.45	0.426	0.415	0.482	0.306	0.502	0.563	0.442	0.43	0.448	0.441	0.717	0.722	0.601	0.72
NCI-H1792	0.431	0.795	0.449	0.51	0.673	0.672	0.562	0.679	0.355	0.484	0.47	0.416	0.712	0.894	0.829	0.957	0.731	0.715	0.684	0.733
NCI-H1793	1.33	0.987	1.24	0.844	0.501	0.587	0.547	0.568	0.207	0.216	0.164	0.17	0.811	0.952	0.835	0.837	0.249	0.277	0.311	0.247
NCI-H1915	1.14	1.1	1.14	1.1	0.724	0.681	0.546	0.695	0.792	0.845	0.68	0.779	0.552	0.471	0.471	0.473	0.603	0.621	0.592	0.586
NCI-H1944	1.34	1.22	1.33	1.2	0.428	0.542	0.502	0.516	0.766	0.685	0.765	0.701	0.595	0.65	0.623	0.627	0.362	0.439	0.456	0.423
NCI-H1975	1.22	1.09	1.06	0.855	0.669	0.666	0.755	0.698	0.242	0.188	0.253	0.167	0.295	0.279	0.306	0.289	0.826	0.62	0.704	0.842
NCI-H1993	0.68	0.721	–	0.636	0.829	0.797	0.748	0.837	0.951	0.861	0.399	0.789	0.636	0.565	0.59	0.589	0.485	0.576	0.634	0.545
NCI-H2085	0.915	0.934	1.04	0.97	0.994	1	0.907	1.1	0.42	0.496	0.43	0.484	0.945	0.885	0.953	1.03	0.755	0.713	0.66	0.754
